System: DAMI cells
Experiment: Cell-penetration activity of Fam-labeled CPP5s, cellular fluorescence by FACS and/or microscopy
Format: cell-based, human
Settings: peptides Fam-labeled on the N-terminus, 200 μM, 3 h, 37 °C, fluorescence intensity of cells by FACS, mean of triplicate samples
Description: Figure 1 Cell-penetration activity of CPP5s. a. List of cell-penetrating penta-peptides (CPP5s). […] Peptide sequences are color-coded to show the constant amphipathic amino acid arrangement in each CPP5. Cell-penetration activity was determined by fluorescence intensity of cells (DAMI cells: a human megakaryocytic cancer cell line) incubated with fluorescein (Fam)-labeled peptides (200 μM) for 3 h at 37 °C as described in Experimental Procedures. Fam was labeled on the N-terminus of all peptides examined. Cells were analyzed by FACS and/or microscopy. The activity of each peptide is shown as a percentage of the activity of KLPVM. Each value represents the mean of triplicate samples. Cell entry of some peptides was confirmed by microscopy only, and these peptides are indicated with a ‘+’ without a percentage value. For cytoprotective activity (right column), the information is based on previous studies and the activity was determined by the protection of cells from Bax overexpression and other apoptotic stimuli such as etoposide treatment. b to e. Cell entry of Fam-labeled VPTLK, KLPVM, TAT, and poly-arginine (R8). HeLa cells were incubated with Fam-labeled VPTLK, KLPVM (200 μM), Fam-TAT (10 μM), and Fam-R8 (10 μM) for 1 h at 37 °C. Images are at 20× magnification. f. Comparison of the cytotoxicity of CPP5 and TAT. Primary cultured mouse embryonic fibroblast (MEF) cells were treated with various concentrations of peptides for 24 h as indicated. Then, apoptosis was analyzed as described in Experimental Procedures. Each bar represents the mean of triplicate samples and standard error. TEXT PRINTED IN THE PICTURE: (a) VPMLK: Cell Penetration (%): 97 ± 4.3; Cytoprotection: + | (a) VPTLK: Cell Penetration (%): 61 ± 1.7; Cytoprotection: + | (a) VPALR: Cell Penetration (%): 79 ± 1.5; Cytoprotection: + | (a) VSALK: Cell Penetration (%): 90 ± 3; Cytoprotection: N.D. | (a) PMLKE: Cell Penetration (%): 65 ± 3.7; Cytoprotection: + | (a) VPALK: Cell Penetration (%): 71 ± 2.2; Cytoprotection: + | (a) VSLKK: Cell Penetration (%): +; Cytoprotection: - | (a) VSGKK: Cell Penetration (%): +; Cytoprotection: - | (a) KLPVM: Cell Penetration (%): 100 ± 2.3; Cytoprotection: - | (a) IPMIK: Cell Penetration (%): 47 ± 1.4; Cytoprotection: - | (a) KLGVM: Cell Penetration (%): +; Cytoprotection: - | (a) KLPVT: Cell Penetration (%): +; Cytoprotection: - | (a) VPMIK: Cell Penetration (%): +; Cytoprotection: N.D. | (a) IPALK: Cell Penetration (%): +; Cytoprotection: N.D. | (a) IPMLK: Cell Penetration (%): +; Cytoprotection: N.D. | (a) VPTLQ: Cell Penetration (%): 70 ± 4; Cytoprotection: - | (a) QLPVM: Cell Penetration (%): +; Cytoprotection: - | (a) ELPVM: Cell Penetration (%): +; Cytoprotection: - | (a) VPTLE: Cell Penetration (%): 80 ± 1.9; Cytoprotection: N.D.
CPP5s that were designed based on the Bax-binding domain of Ku70 of several species are named Bax-Inhibiting Peptides (BIPs); they are VPMLK, PMLKE, VPTLK, VPALR, and VPALK. VPMLK and PMLKE were designed from human Ku70, and the same sequence exists in the Ku70 homologues of dog and monkey. VPTLK and VPALR are based on mouse and rat Ku70, respectively. VPALK was designed from cattle Ku70, and the same sequence exists in Ku70 of the African clawed frog. Cytoprotective activities of these BIPs have been previously reported, both in cell culture and animal models. […] The observed variation in cell-entering activity of Fam-labeled-CPP5s is shown in Figure 1a as a percentage of the activity of KLPVM. In all cases, Fam was attached to the N-terminal amino acid. For some CPP5s, cell-penetration activity was confirmed by detection of an intracellular fluorescent signal by microscopy. These latter results are indicated with ‘+’ symbols, and a quantitative comparison with the activity of KLPVM was not performed. […]

Substance: VPTLK
- Cell Penetration (%), percentage of the activity of KLPVM: 61 ± 1.7%

From paper PMC3045100, “Cell-Penetrating Penta-Peptides (CPP5s): Measurement of Cell Entry and Protein-Transduction Activity” (Pharmaceuticals, 2010)
